Source: ChEMBL document CHEMBL4507275, “Data for DCP probe BI-2545” (2021)

Tests used:
[1] = biological target: ALK tyrosine kinase receptor (Homo sapiens) (UniProt Q9UM73); details: Compound concentration 1000.0 nM
[2] = biological target: Aurora kinase B (Homo sapiens) (UniProt Q96GD4); details: Compound concentration 1000.0 nM
[3] = biological target: Calcium/calmodulin-dependent protein kinase type II subunit beta (Homo sapiens) (UniProt Q13554); details: Compound concentration 1000.0 nM
[4] = biological target: Citron Rho-interacting kinase (Homo sapiens) (UniProt O14578); details: Compound concentration 1000.0 nM
[5] = biological target: Dual specificity protein kinase CLK4 (Homo sapiens) (UniProt Q9HAZ1); details: Compound concentration 1000.0 nM
[6] = biological target: Macrophage colony-stimulating factor 1 receptor (Homo sapiens) (UniProt P07333); details: Compound concentration 1000.0 nM
Sequence of Macrophage colony-stimulating factor 1 receptor (Homo sapiens) (P07333 whole entry, canonical isoform): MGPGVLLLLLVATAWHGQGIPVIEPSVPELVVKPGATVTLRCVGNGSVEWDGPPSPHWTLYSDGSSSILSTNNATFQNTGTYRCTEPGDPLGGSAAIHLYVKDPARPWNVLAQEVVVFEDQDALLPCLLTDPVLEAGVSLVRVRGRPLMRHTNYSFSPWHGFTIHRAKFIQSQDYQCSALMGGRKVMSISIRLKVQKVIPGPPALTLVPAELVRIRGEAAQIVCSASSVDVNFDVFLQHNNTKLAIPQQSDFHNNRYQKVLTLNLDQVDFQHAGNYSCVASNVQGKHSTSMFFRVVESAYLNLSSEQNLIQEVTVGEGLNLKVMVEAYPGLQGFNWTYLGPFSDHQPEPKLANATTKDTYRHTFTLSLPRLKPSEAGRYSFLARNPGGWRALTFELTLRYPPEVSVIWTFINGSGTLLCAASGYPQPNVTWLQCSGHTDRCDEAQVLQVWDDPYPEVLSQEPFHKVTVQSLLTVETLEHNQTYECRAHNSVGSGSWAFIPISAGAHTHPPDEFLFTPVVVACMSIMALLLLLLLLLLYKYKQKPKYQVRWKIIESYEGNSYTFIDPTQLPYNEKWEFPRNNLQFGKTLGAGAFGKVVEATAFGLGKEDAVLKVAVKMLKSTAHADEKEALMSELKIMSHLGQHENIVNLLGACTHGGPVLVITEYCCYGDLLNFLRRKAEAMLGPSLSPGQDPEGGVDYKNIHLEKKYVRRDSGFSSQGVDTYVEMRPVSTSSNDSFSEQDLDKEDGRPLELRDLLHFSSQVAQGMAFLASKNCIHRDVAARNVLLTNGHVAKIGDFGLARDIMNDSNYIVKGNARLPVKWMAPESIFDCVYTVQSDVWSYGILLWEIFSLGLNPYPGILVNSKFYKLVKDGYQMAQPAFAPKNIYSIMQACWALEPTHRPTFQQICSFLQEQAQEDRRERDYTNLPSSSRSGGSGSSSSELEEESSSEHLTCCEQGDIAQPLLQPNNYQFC

[7] = biological target: Macrophage colony-stimulating factor 1 receptor (Homo sapiens) (UniProt P07333); details: Compound concentration 1000.0 nM; remark: listed apart in the source
[8] = biological target: Casein kinase I isoform alpha (Homo sapiens) (UniProt P48729); details: Compound concentration 1000.0 nM
[9] = biological target: Casein kinase I isoform gamma-3 (Homo sapiens) (UniProt Q9Y6M4); details: Compound concentration 1000.0 nM
[10] = biological target: Myotonin-protein kinase (Homo sapiens) (UniProt Q09013); details: Compound concentration 1000.0 nM
[11] = biological target: Dual specificity tyrosine-phosphorylation-regulated kinase 1B (Homo sapiens) (UniProt Q9Y463); details: Compound concentration 1000.0 nM
[12] = biological target: Mitogen-activated protein kinase 15 (Homo sapiens) (UniProt Q8TD08); details: Compound concentration 1000.0 nM
[13] = biological target: Fibroblast growth factor receptor 3 (Homo sapiens) (UniProt P22607); details: Compound concentration 1000.0 nM
[14] = biological target: Tyrosine-protein kinase Fgr (Homo sapiens) (UniProt P09769); details: Compound concentration 1000.0 nM
Sequence of Tyrosine-protein kinase Fgr (Homo sapiens) (P09769 2-529 limits assumed): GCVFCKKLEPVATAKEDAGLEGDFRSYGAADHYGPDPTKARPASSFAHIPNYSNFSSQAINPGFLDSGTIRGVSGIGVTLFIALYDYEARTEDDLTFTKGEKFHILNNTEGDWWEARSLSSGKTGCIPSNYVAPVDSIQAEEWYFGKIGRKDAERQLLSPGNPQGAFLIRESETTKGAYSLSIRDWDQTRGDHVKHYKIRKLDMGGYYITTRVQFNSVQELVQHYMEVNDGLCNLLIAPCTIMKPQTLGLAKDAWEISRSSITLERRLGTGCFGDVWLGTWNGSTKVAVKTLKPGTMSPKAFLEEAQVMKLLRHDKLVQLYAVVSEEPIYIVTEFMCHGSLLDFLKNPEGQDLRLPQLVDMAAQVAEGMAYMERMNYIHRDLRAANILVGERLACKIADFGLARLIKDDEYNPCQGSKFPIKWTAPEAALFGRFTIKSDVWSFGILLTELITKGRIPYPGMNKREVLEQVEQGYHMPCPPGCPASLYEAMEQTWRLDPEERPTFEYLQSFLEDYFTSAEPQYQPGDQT

[15] = biological target: Vascular endothelial growth factor receptor 3 (Homo sapiens) (UniProt P35916); details: Compound concentration 1000.0 nM
[16] = biological target: Mitogen-activated protein kinase kinase kinase kinase 1 (Homo sapiens) (UniProt Q92918); details: Compound concentration 1000.0 nM
[17] = biological target: Insulin-like growth factor 1 receptor (Homo sapiens) (UniProt P08069); details: Compound concentration 1000.0 nM
[18] = biological target: Mitogen-activated protein kinase 9 (Homo sapiens) (UniProt P45984); details: Compound concentration 1000.0 nM
[19] = system: Mast/stem cell growth factor receptor Kit (Homo sapiens), P10721 [A829P]; details: Compound concentration 1000.0 nM
Sequence of Mast/stem cell growth factor receptor Kit (Homo sapiens), P10721 [A829P] (P10721 whole entry A829P): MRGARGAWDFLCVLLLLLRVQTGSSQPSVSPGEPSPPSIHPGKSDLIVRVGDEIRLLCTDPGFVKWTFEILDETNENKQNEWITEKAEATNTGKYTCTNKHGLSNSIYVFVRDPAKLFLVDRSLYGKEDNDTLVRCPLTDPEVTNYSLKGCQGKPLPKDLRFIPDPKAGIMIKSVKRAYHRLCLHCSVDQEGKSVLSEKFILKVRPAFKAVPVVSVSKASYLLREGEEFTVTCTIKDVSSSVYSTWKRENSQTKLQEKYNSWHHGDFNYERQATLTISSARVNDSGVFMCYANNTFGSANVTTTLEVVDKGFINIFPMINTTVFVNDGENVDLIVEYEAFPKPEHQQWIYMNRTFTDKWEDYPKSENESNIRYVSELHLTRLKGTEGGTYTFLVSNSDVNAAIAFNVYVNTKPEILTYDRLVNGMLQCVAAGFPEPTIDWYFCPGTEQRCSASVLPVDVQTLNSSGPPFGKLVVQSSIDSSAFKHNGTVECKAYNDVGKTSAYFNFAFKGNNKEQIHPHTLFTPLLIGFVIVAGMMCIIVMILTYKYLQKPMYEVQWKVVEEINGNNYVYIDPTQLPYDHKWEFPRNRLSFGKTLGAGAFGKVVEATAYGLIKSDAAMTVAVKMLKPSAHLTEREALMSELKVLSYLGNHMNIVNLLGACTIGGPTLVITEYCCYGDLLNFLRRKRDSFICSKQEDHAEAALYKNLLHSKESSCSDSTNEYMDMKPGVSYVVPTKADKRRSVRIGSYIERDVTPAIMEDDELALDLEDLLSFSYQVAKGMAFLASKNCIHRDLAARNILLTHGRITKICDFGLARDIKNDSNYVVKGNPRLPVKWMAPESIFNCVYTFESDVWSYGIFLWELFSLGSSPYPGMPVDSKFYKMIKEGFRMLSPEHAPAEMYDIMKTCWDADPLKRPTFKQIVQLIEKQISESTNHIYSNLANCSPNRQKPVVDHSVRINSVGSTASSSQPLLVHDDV

[20] = system: Mast/stem cell growth factor receptor Kit (Homo sapiens), P10721 [L576P]; details: Compound concentration 1000.0 nM
Sequence of Mast/stem cell growth factor receptor Kit (Homo sapiens), P10721 [L576P] (P10721 whole entry L576P): as the sequence (P10721 whole entry A829P) above, with L576P, P829A counted along it

[21] = biological target: Tyrosine-protein kinase Lck (Homo sapiens) (UniProt P06239); details: Compound concentration 1000.0 nM
[22] = biological target: Tyrosine-protein kinase Lyn (Homo sapiens) (UniProt P07948); details: Compound concentration 1000.0 nM
[23] = biological target: Serine/threonine-protein kinase MAK (Homo sapiens) (UniProt P20794); details: Compound concentration 1000.0 nM
[24] = biological target: Mitogen-activated protein kinase kinase kinase 3 (Homo sapiens) (UniProt Q99759); details: Compound concentration 1000.0 nM
[25] = biological target: Serine/threonine-protein kinase MARK2 (Homo sapiens) (UniProt Q7KZI7); details: Compound concentration 1000.0 nM
[26] = biological target: Dual specificity mitogen-activated protein kinase kinase 3 (Homo sapiens) (UniProt P46734); details: Compound concentration 1000.0 nM
[27] = biological target: MAP kinase-interacting serine/threonine-protein kinase 1 (Homo sapiens) (UniProt Q9BUB5); details: Compound concentration 1000.0 nM
[28] = biological target: Serine/threonine-protein kinase 3 (Homo sapiens) (UniProt Q13188); details: Compound concentration 1000.0 nM
[29] = biological target: Myosin light chain kinase, smooth muscle (Homo sapiens) (UniProt Q15746); details: Compound concentration 1000.0 nM
Sequence of Myosin light chain kinase, smooth muscle (Homo sapiens) (Q15746 whole entry): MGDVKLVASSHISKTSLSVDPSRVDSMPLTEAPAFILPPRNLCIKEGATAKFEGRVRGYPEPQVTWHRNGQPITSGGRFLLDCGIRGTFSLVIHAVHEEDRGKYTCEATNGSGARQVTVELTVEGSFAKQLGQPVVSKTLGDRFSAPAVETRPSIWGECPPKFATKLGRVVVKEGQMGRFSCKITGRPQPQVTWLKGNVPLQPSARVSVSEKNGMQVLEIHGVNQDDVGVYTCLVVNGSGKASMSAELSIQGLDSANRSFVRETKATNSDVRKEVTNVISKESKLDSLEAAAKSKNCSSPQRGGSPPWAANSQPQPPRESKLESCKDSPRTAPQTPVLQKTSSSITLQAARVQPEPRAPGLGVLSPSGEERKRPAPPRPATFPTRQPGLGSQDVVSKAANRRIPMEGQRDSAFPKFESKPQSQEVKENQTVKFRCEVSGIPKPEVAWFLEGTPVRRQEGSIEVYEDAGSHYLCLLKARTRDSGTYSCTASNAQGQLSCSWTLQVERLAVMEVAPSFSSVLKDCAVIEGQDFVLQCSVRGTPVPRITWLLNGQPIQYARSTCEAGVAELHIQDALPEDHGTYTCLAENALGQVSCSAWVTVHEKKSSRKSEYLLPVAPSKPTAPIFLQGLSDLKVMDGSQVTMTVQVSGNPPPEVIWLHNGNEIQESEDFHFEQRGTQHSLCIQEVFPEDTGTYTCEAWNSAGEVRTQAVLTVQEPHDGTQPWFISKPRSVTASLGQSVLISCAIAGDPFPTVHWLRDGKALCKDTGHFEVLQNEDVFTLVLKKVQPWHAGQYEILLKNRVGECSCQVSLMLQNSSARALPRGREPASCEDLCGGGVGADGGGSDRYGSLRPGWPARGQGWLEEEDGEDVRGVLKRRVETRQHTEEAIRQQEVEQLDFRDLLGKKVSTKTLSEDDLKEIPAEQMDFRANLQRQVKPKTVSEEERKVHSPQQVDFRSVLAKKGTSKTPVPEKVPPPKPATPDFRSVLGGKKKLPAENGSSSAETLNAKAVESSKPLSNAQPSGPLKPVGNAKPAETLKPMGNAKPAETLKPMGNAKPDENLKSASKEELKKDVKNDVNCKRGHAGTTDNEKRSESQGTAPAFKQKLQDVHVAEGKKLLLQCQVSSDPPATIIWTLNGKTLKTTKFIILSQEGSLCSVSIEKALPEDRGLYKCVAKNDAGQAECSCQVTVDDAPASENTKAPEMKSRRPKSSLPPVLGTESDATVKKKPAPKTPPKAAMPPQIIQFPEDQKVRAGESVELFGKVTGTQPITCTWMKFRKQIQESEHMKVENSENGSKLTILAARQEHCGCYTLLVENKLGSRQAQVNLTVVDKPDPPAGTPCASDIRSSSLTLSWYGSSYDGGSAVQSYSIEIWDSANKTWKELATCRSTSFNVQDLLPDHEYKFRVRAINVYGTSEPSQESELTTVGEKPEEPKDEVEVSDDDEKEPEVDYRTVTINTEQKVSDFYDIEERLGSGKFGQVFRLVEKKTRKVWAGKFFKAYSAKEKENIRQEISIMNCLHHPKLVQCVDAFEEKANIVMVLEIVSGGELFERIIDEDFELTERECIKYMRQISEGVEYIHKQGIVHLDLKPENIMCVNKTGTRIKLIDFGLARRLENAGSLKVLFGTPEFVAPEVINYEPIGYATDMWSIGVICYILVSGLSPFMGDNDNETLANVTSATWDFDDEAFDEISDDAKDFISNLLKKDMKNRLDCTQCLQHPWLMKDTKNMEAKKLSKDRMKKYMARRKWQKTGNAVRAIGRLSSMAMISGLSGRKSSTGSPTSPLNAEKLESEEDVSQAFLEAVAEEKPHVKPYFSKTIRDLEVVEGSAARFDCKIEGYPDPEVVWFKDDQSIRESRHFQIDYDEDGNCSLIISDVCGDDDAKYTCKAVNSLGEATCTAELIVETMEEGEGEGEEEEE

[30] = biological target: Cyclin-dependent kinase 2 homolog (Plasmodium falciparum (isolate 3D7)) (UniProt P61075); details: Compound concentration 1000.0 nM
[31] = system: Phosphatidylinositol 4,5-bisphosphate 3-kinase catalytic subunit alpha isoform (Homo sapiens), P42336 [Q546K]; details: Compound concentration 1000.0 nM
[32] = biological target: Phosphatidylinositol 4,5-bisphosphate 3-kinase catalytic subunit gamma isoform (Homo sapiens) (UniProt P48736); details: Compound concentration 1000.0 nM
[33] = biological target: Protein kinase C delta type (Homo sapiens) (UniProt Q05655); details: Compound concentration 1000.0 nM
[34] = biological target: cGMP-dependent protein kinase 1 (Homo sapiens) (UniProt Q13976); details: Compound concentration 1000.0 nM
[35] = biological target: Serine/threonine-protein kinase SBK1 (Homo sapiens) (UniProt Q52WX2); details: Compound concentration 1000.0 nM
[36] = biological target: SRSF protein kinase 3 (Homo sapiens) (UniProt Q9UPE1); details: Compound concentration 1000.0 nM
[37] = biological target: TGF-beta receptor type-1 (Homo sapiens) (UniProt P36897); details: Compound concentration 1000.0 nM
[38] = biological target: T1, Muscarinic acetylcholine receptor M2 (Homo sapiens) (UniProt P08172); details: Compound concentration 10.0 uM
T1 sequence (whole entry): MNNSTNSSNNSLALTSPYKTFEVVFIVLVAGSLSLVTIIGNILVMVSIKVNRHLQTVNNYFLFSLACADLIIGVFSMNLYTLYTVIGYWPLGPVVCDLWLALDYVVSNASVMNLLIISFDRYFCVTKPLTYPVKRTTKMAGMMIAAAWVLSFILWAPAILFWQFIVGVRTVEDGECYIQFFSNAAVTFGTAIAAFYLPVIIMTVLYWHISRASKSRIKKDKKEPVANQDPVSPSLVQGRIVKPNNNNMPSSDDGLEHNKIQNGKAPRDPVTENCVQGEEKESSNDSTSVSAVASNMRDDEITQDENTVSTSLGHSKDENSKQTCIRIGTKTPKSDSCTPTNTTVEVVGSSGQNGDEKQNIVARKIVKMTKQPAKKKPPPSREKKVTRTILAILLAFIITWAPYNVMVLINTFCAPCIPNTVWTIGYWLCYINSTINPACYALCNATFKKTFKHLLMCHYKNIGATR

[39] = biological target: Muscarinic acetylcholine receptor M5 (Homo sapiens) (UniProt P08912); details: Compound concentration 10.0 uM

Sequence of Calcium/calmodulin-dependent protein kinase type II subunit beta (Homo sapiens) (Q13554 whole entry): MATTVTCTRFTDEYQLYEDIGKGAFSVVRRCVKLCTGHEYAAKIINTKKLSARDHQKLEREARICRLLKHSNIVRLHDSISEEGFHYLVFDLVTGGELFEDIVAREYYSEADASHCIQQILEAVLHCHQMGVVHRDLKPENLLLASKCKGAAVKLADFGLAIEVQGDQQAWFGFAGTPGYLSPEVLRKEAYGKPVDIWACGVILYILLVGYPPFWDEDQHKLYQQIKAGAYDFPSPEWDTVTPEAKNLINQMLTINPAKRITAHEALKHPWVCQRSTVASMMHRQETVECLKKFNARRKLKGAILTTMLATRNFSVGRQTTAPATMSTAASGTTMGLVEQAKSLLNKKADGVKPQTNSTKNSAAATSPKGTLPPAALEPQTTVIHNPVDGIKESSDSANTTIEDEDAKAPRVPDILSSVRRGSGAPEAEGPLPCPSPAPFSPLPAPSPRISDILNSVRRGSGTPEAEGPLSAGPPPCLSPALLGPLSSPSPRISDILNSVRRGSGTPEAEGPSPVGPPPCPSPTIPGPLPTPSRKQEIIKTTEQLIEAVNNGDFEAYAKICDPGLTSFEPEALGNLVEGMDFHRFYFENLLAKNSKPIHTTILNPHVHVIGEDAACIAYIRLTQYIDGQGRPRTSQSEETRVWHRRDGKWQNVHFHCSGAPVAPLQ

O=C(NC[C@@H]1[C@H]2CN(C(=O)OCc3cc(C(F)(F)F)cc(C(F)(F)F)c3)C[C@@H]12)c1ccc2[nH]nnc2c1 [BI 2545]
inactive: residual activity [1] 79% | residual activity [2] 84% | residual activity [3] 100% | residual activity [4] 100% | residual activity [5] 98% | residual activity [6] 99% | residual activity [7] 95% | residual activity [8] 100% | residual activity [9] 89% | residual activity [10] 94% | residual activity [11] 86% | residual activity [12] 100% | residual activity [13] 82% | residual activity [14] 88% | residual activity [15] 88% | residual activity [16] 83% | residual activity [17] 100% | residual activity [18] 100% | residual activity [19] 100% | residual activity [20] 92% | residual activity [21] 100% | residual activity [22] 100% | residual activity [23] 100% | residual activity [24] 94% | residual activity [25] 89% | residual activity [26] 93% | residual activity [27] 90% | residual activity [28] 87% | residual activity [29] 88% | residual activity [30] 100% | residual activity [31] 78% | residual activity [32] 76% | residual activity [33] 93% | residual activity [34] 83% | residual activity [35] 97% | residual activity [36] 100% | residual activity [37] 97% | inhibition [38] 7.11% | inhibition [39] 15.3%

Cc1nccc(COC(=O)N2C[C@@H]3[C@@H](CNC(=O)c4ccc5[nH]nnc5c4)[C@@H]3C2)n1 [BI 3017]
inactive: residual activity [1] 87% | residual activity [2] 93% | residual activity [3] 90% | residual activity [4] 100% | residual activity [5] 97% | residual activity [6] 88% | residual activity [7] 100% | residual activity [8] 86% | residual activity [9] 100% | residual activity [10] 98% | residual activity [11] 99% | residual activity [12] 100% | residual activity [13] 93% | residual activity [14] 100% | residual activity [15] 100% | residual activity [16] 100% | residual activity [17] 93% | residual activity [18] 95% | residual activity [19] 94% | residual activity [20] 89% | residual activity [21] 94% | residual activity [22] 100% | residual activity [23] 98% | residual activity [24] 91% | residual activity [25] 97% | residual activity [26] 84% | residual activity [27] 91% | residual activity [28] 97% | residual activity [29] 100% | residual activity [30] 85% | residual activity [31] 85% | residual activity [32] 89% | residual activity [33] 95% | residual activity [34] 100% | residual activity [35] 93% | residual activity [36] 100% | residual activity [37] 100% | inhibition [38] -5.6% | inhibition [39] -9.7%
